Literature values in US20190259474A1, “GAN-CNN FOR MHC PEPTIDE BINDING PREDICTION” (REGENERON PHARMACEUTICALS, INC., priority 2018, published 2019).
Values belong to the sequence of their own block, whether it stands above or below them.

Key:
[1] = test system: MHC-I protein complex encoded by HLA allele A829:02; details: HLA A829:02; category transformed from IC50
[2] = target: MHC-I protein complex encoded by HLA allele A*03:01 (Homo sapiens, UniProt P04439); details: HLA A*03:01; category transformed from IC50
[3] = test system: MHC-I protein complex encoded by HLA allele C*16:01; details: HLA C*16:01; category transformed from IC50
[4] = test system: MHC-I protein complex encoded by HLA allele B*14:02; details: HLA B*14:02; category transformed from IC50
[5] = target: MHC-I protein complex encoded by HLA allele A*02:01 (Homo sapiens, UniProt P04439, D140Y/D185E/D98H/E176V/E277Q/G131W/G231S/I119V/I121R/I166T/I218V/L300P/L318F/N151K/N90K/P208A/P217A/Q86G/Q94H/R138H/R169H/T345S); details: HLA A*02:01; category transformed from IC50
[6] = test system: MHC-I protein complex encoded by HLA allele B*48:01; details: HLA B*48:01; category transformed from IC50
[7] = test system: MHC-I protein complex encoded by HLA allele B*58:01; details: HLA B*58:01; category transformed from IC50
[8] = test system: MHC-I protein complex encoded by HLA allele A*68:02; details: HLA A*68:02; category transformed from IC50
[9] = target: MHC-I protein complex encoded by HLA allele A*02:06 (Homo sapiens, UniProt P04439, D140Y/D185E/D98H/E176V/E277Q/F33Y/G131W/G231S/I119V/I121R/I166T/I218V/L300P/L318F/N151K/N90K/P208A/P217A/Q86G/Q94H/R138H/R169H/T345S); details: HLA A*02:06; category transformed from IC50
[10] = target: MHC-I protein complex encoded by HLA allele A*02:03 (Homo sapiens, UniProt P04439, A173T/D140Y/D185E/D98H/E277Q/G131W/G231S/I119V/I121R/I166T/I218V/L180W/L300P/L318F/N151K/N90K/P208A/P217A/Q86G/Q94H/R138H/R169H/T345S); details: HLA A*02:03; category transformed from IC50
[11] = test system: MHC-I protein complex encoded by HLA allele A*02:02; details: HLA A*02:02; category transformed from IC50
[12] = test system: MHC-I protein complex encoded by HLA allele C*03:04; details: HLA C*03:04; category transformed from IC50
[13] = test system: MHC-I protein complex encoded by HLA allele B*44:03; details: HLA B*44:03; category transformed from IC50

Sequence: AAAAALQAK (MHC-I binding peptide)
Binding Category [2]: 1

Sequence: AAAAALWL (MHC-I binding peptide)
Binding Category [3]: 1

Sequence: AAAAARAAL (MHC-I binding peptide)
Binding Category [4]: −1

Sequence: AAAAFEAAL
Binding Category [6]: 1

Sequence: AAAAPYAGW (MHC-I binding peptide)
Binding Category [7]: 1

Sequence: AAAATCALV (MHC-I binding peptide)
Binding Category [8]: 1
Binding Category [9]: 1
Binding Category [5]: 1
Binding Category [10]: 1
Binding Category [11]: 1

Sequence: AAADFAHAE (MHC-I binding peptide)
Binding Category [13]: −1

Sequence: AAADPKVAF (MHC-I binding peptide)
Binding Category [3]: 1

Continued, values first:

Binding Category [1]: 1
Sequence: AAAAAAAALY (MHC-I binding peptide)

Binding Category [5]: −1
Sequence: AAAAEEEEE (MHC-I binding peptide)

Binding Category [4]: 1
Sequence: AAAARAAAL (MHC-I binding peptide)

Binding Category [12]: 1
Sequence: AAADAAAAL (MHC-I binding peptide)
